Experimental data taken from ChEMBL document CHEMBL3763131, “Anion inhibition studies of the β-carbonic anhydrase from the pathogenic bacterium Vibrio cholerae” (Bioorg Med Chem Lett, 2016).
Several values for one entry are separate records, joined by “and”; a condition that tells them apart may be missing. Equal entries are not always repeated.

Experiments:
[1] = Inhibition of Vibrio cholerae alpha-carbonic anhydrase preincubated for 15 mins by stopped-flow CO2 hydration assay
[2] = biological target: Carbonic anhydrase 1 (Homo sapiens, UniProt P00915); assay: Inhibition of human carbonic anhydrase 1 preincubated for 15 mins by stopped-flow CO2 hydration assay
Sequence of Carbonic anhydrase 1 (P00915 whole entry): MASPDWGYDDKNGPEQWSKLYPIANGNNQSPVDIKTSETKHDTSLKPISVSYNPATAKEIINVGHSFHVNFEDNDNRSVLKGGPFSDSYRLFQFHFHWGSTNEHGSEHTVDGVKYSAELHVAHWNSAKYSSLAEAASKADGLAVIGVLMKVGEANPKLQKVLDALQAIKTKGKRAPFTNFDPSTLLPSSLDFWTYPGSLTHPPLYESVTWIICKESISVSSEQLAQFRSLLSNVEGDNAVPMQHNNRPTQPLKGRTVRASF

Compound | Ki [1] | Ki [2] [µM]
O=S(=O)(O)OOS(=O)(=O)O | 84100 µM | –
N=C=S [ISOTHIOCYANATE] | 820 µM | –
O=P(O)(O)OP(=O)(O)O [PYROPHOSPHORIC ACID] | 2960 µM | –
F [FLUORIDE ION] | 800 µM | –
O=[Se](=O)(O)O [SELENIC ACID] | 60800 µM | –
O=S(O)O [SULFUROUS ACID] | 68 µM | –
O=[Te](=O)(O)O | 14500 µM | –
O=NO [NITROUS ACID] | 34100 µM | –
[O-][Cl+3]([O-])([O-])O [PERCHLORATE] | > 200000 µM | –
O=S(=O)(O)NS(=O)(=O)O | 88200 µM | –
NS(N)(=O)=O [SULFAMIDE] | 8 µM | –
S [HYDROGEN SULFIDE] | 74 µM | –
[N-]=[N+]=[N-] | 760 µM | –
O=[N+]([O-])O | 670 µM | –
OB(O)c1ccccc1 [PHENYLBORONIC ACID] | 7 µM | –
NS(=O)(=O)O [SULFAMATE] | 31 µM | –
O=[As](O)(O)c1ccccc1 [PHENYLARSONIC ACID] | 23 µM | –
N=C=[Se] [ISOSELENOCYANATE] | 760 µM | 8.5
N#CO [CYANATE] | 75 µM | –
Cl [HYDROCHLORIC ACID] | 930 µM | –
O=C(O)O [BICARBONATE] | 4640 µM and 5130 µM | –
O=S(=O)(O)O [SULFURIC ACID] | 850 µM | –
S=C(S)S [CARBONOTRITHIOIC ACID] | 88 µM | –
I [IODIDE] | 9730 µM | –
F[B-](F)(F)F | > 200000 µM | > 200000
Br [BROMIDE] | 28000 µM | –
CCN(CC)C(=S)S [DITIOCARB] | 43 µM | –
